Source: patent US11751592B2, “Sweetness and taste improvement of steviol glycoside or mogroside sweeteners” (The Coca-Cola Company, priority 2016, dated 2023)

How the values were obtained:
panelists [1] = experiment: Taste evaluation of sweetness against sucrose solutions, Example 2 (compound 1 with Mogroside V); type: in vivo, human; conditions: for sweetness, equally sweet to sucrose in acidic water: two panelists
Description: (§1) Ingredients were added to acidic water or acidic water with compound 1 while stirring until solids were visibly dissolved and the sample was poured into a glass bottle and stored at 4° C.
(§2) Taste tests were carried out with two panelists. Bottles were removed from the refrigerator and about 25 ml of beverage was poured into 4 oz-plastic cups. Panelists were given mineral water to rinse their mouth before tasting and between tasting different samples. Unsalted crackers were also given to panelists to eat followed by rinsing their mouth with mineral water before tasting the next sample. The sucrose solutions in Table 4, a sample of Mogroside V in acidic water and a sample of compound 1 and Mogroside V in acidic water were given to panelists. Panelists were asked to evaluate the sweetness of samples against 7%, 8%, 9%, and 10% sucrose solution and describe the difference of taste profile. Panelists were instructed to sip, evaluate the sweetness, and then spit the samples in cups provided for that purpose.

panelists [2] = experiment: Taste evaluation of sweetness against sucrose solutions, Example 3 (compound 1 with Rebaudioside A); type: in vivo, human; conditions: for sweetness, equally sweet to sucrose in acidic water: two panelists
Description: as §1
as §2, with “Rebaudioside A” for “Mogroside V”, “differences in the” for “difference of”, “profiles.” for “profile.”

panelists [3] = experiment: Taste evaluation of sweetness against sucrose solutions, Example 1 (compound 1 with Rebaudioside M); type: in vivo, human
Description: as §1
Taste tests were carried out with two panelists. Bottles were removed from the refrigerator and about 25 ml of beverage was poured into 4 oz-plastic cups. Panelists were given mineral water to rinse their mouth before tasting and between tasting different samples. Unsalted crackers were also given to panelists to eat followed by rinsing their mouth with mineral water before tasting the next sample.
First, two panelists assessed the sweetness of 5 ppm of compound 1 in acidic water against 1.5% sucrose solution in acidic water.
Sucrose solutions in Table 5, a sample of Rebaudioside M in acidic water and a sample of compound 1 and Rebaudioside M in acidic water were given to panelists. Panelists were asked to evaluate the sweetness of samples against 7%, 8%, 9%, and 10% sucrose solution and describe the differences in the taste profiles. Panelists were instructed to sip, evaluate the sweetness, and then spit the samples in cups provided for that purpose.

[4] = Solubility in water during sample preparation; type: physicochemical; conditions: 2.5 mg in 500 g water, initially, before microwave, sonication and agitation
Description: The sample was treated with Microwave (1 min), Sonication (15 min), and agitation (30 min) repeatedly until the solution became visually clear. The solution was cooled at room temperature and citric acid was added.

[5] = 5 ppm compound 1 and 320 ppm Rebaudioside M in acidic water
[6] = 5 ppm compound 1 and 400 ppm Mogroside V in acidic water, both panelists
[7] = 5 ppm compound 1 and 400 ppm Rebaudioside A in acidic water

## C[C@H](CC[C@@H](O[C@@H]1O[C@H](CO[C@@H]2O[C@H](CO)[C@@H](O)[C@H](O)[C@H]2O)[C@@H](O)[C@H](O)[C@H]1O[C@@H]1O[C@H](CO)[C@@H](O)[C@H](O)[C@H]1O)C(C)(C)O)[C@H]1CC[C@@]2(C)[C@@H]3CC=C4[C@@H](CC[C@H](O[C@@H]5O[C@H](CO[C@@H]6O[C@H](CO)[C@@H](O)[C@H](O)[C@H]6O)[C@@H](O)[C@H](O)[C@H]5O)C4(C)C)[C@]3(C)[C@H](O)C[C@]12C [Mogroside V, reference compound]
Panelists [1]; 400 ppm Mogroside V in acidic water, without compound 1
  sweetness, equally sweet to sucrose in acidic water: 7 % sucrose

## C=C1C[C@@]23CC[C@H]4[C@@](C)(CCC[C@@]4(C)C(=O)O[C@@H]4O[C@H](CO)[C@@H](O)[C@H](O)[C@H]4O)[C@@H]2CC[C@]1(O[C@@H]1O[C@H](CO)[C@@H](O)[C@H](O[C@@H]2O[C@H](CO)[C@@H](O)[C@H](O)[C@H]2O)[C@H]1O[C@@H]1O[C@H](CO)[C@@H](O)[C@H](O)[C@H]1O)C3 [Rebaudioside A, reference compound]
Panelists [2]; 400 ppm Rebaudioside A in acidic water, without compound 1
  sweetness, equally sweet to sucrose in acidic water: 7 % sucrose

## C=C1C[C@@]23CC[C@H]4[C@@](C)(CCC[C@@]4(C)C(=O)O[C@@H]4O[C@H](CO)[C@@H](O)[C@H](O[C@@H]5O[C@H](CO)[C@@H](O)[C@H](O)[C@H]5O)[C@H]4O[C@@H]4O[C@H](CO)[C@@H](O)[C@H](O)[C@H]4O)[C@@H]2CC[C@]1(O[C@@H]1O[C@H](CO)[C@@H](O)[C@H](O[C@@H]2O[C@H](CO)[C@@H](O)[C@H](O)[C@H]2O)[C@H]1O[C@@H]1O[C@H](CO)[C@@H](O)[C@H](O)[C@H]1O)C3 [Rebaudioside M, reference compound]
Panelists [3]; 320 ppm Rebaudioside M in acidic water, without compound 1, two panelists
  sweetness, equally sweet to sucrose in acidic water: 8 % sucrose

## CC(C)CC(=O)N1CCC[C@H](COc2cccc3c2C(N)=NS(=O)(=O)N3)C1 [compound 1, (S)-1-(3-(((4-amino-2,2-dioxido-1H-benzo[c][1,2,6]thiadiazin-5-yl)oxy)methyl)piperidin-1-yl)-3-methylbutan-1-one]
Panelists [3]; 5 ppm compound 1 alone in acidic water, two panelists
  sweetness against sucrose solution in acidic water: < 1.5 % sucrose
Panelists [3]; [5]
  taste profile: bitterness: no bitterness
  taste profile: mouthfeel: more mouthfeel
Panelists [3]; 5 ppm compound 1 and 320 ppm Rebaudioside M in acidic water, two panelists
  sweetness, equally sweet to sucrose in acidic water: 10 % sucrose
Panelists [1]; 5 ppm compound 1 and 400 ppm Mogroside V in acidic water, compared to the sample with just Mogroside V, one panelist
  taste profile: mouthfeel: more mouthfeel
Panelists [1]; [6]
  taste profile: bitterness: not bitter
  taste profile: sweet linger: slight sweet linger
  taste profile: sweetness onset: slower sweetness onset
Panelists [1]; 5 ppm compound 1 and 400 ppm Mogroside V in acidic water
  sweetness, equally sweet to sucrose in acidic water: 10 % sucrose
Panelists [2]; [7]
  taste profile: bitterness: more bitter
  sweetness, equally sweet to sucrose in acidic water: 7 % sucrose
Panelists [2]; 5 ppm compound 1 in acidic water containing 400 ppm Rebaudioside A
  sweetness enhancement: does not enhance the sweetness
[4]
  solubility in water: not completely soluble
